Test system: LNCaP C-81 cells
Experiment: cell proliferation assay
Assay type: cell-based, Human
Conditions: regular culture medium, 3 days treatment

SMILES	inhibition of proliferation
O=C(NN=C1C=CC(=NOS(=O)(=O)c2ccccc2)C=C1)c1cc2ccccc2cc1O [Compound A9]	up to 70%
O=C(c1ccc(O)c(NC(=O)c2cccc3ccccc23)c1)c1ccc(O)c(NC(=O)c2cccc3ccccc23)c1 [Compound A36]	about 32%

Source: publication PMC4150255 (Journal of medicinal chemistry, 2012)
